Results reported in publication PMC4150738 (Analytica chimica acta, 2014).
Where two headings read alike, the source gives them in different places.

Assays:
[1] = Short-term stability in fortified plasma; assay type: physicochemical, human
[2] = for change of plasma concentration without the deconjugation step (hydrolysis): rat plasma after 0.5 mg kg-1 MDPV ip or sc, with vs without hydrolysis; for form present in rat plasma: rat plasma after MDPV, concluded from hydrolysis comparison; for plasma concentration, Without hydrolysis / plasma concentration, Hydrolysis / plasma concentration range after intraperitoneal dosing / plasma concentration range after the subcutaneous dose: rat plasma; for plasma concentration, Without hydrolysis / plasma concentration, Hydrolysis: LOQ 0.25 μg L^−1; for plasma concentration, Hydrolysis: with hydrolysis; for plasma concentration range after intraperitoneal dosing: 0.5 mg kg^−1 MDPV intraperitoneal; for plasma concentration range after intraperitoneal dosing / plasma concentration range after the subcutaneous dose: samples 10-480 min after dosing; for plasma concentration range after the subcutaneous dose: 0.5 mg kg^−1 MDPV subcutaneous
[3] = High QC 750 μg L^−1, n=5, vs freshly fortified
[4] = Low QC 0.75 μg L^−1, n=5, vs freshly fortified
[5] = Medium QC 25 μg L^−1, n=5, vs freshly fortified
[6] = 0.5 mg kg-1 MDPV ip, 0 min (before dosing)
[7] = 0.5 mg kg-1 MDPV sc, 0 min (before dosing)

## CCCC(C(=O)c1ccc(O)c(O)c1)N1CCCC1 (centres unmarked) [3,4-catechol-PV, 3,4-dihydroxypyrovalerone]
[1]; [3]
  Stability (% difference) 3 freeze-thaw cycles: −3.6 % difference
  Stability (% difference) 72h at 4°C: −3 % difference
[1]; [4]
  Stability (% difference) 3 freeze-thaw cycles: −3.2 % difference
  Stability (% difference) 72h at 4°C: −7.3 % difference
[1]; [5]
  Stability (% difference) 3 freeze-thaw cycles: −2.6 % difference
  Stability (% difference) 72h at 4°C: 6.5 % difference
[2]
  change of plasma concentration without the deconjugation step (hydrolysis): greatly decreased
  form present in rat plasma: primarily present as the conjugated forms
  plasma concentration range after intraperitoneal dosing: 3.7 to 11.8 ng/mL
  plasma concentration range after the subcutaneous dose: 1.3 to 9.8 ng/mL
[2]; [6]
  plasma concentration, Without hydrolysis: <LOQ
[2]; 0.5 mg kg-1 MDPV ip, 10 min
  plasma concentration, Hydrolysis: 4.3 ng/mL
  plasma concentration, Without hydrolysis: <LOQ
[2]; 0.5 mg kg-1 MDPV ip, 20 min
  plasma concentration, Hydrolysis: 5.1 ng/mL
  plasma concentration, Without hydrolysis: <LOQ
[2]; 0.5 mg kg-1 MDPV ip, 30 min
  plasma concentration, Hydrolysis: 4.9 ng/mL
  plasma concentration, Without hydrolysis: <LOQ
[2]; 0.5 mg kg-1 MDPV ip, 60 min
  plasma concentration, Hydrolysis: 3.7 ng/mL
  plasma concentration, Without hydrolysis: <LOQ
[2]; 0.5 mg kg-1 MDPV ip, 120 min
  plasma concentration, Hydrolysis: 9.6 ng/mL
  plasma concentration, Without hydrolysis: <LOQ
[2]; 0.5 mg kg-1 MDPV ip, 240 min
  plasma concentration, Hydrolysis: 11.8 ng/mL
  plasma concentration, Without hydrolysis: <LOQ
[2]; 0.5 mg kg-1 MDPV ip, 480 min
  plasma concentration, Hydrolysis: 5.3 ng/mL
  plasma concentration, Without hydrolysis: <LOQ
[2]; [7]
  plasma concentration, Without hydrolysis: <LOQ
[2]; 0.5 mg kg-1 MDPV sc, 10 min
  plasma concentration, Hydrolysis: 1.3 ng/mL
  plasma concentration, Without hydrolysis: <LOQ
[2]; 0.5 mg kg-1 MDPV sc, 20 min
  plasma concentration, Hydrolysis: 2.7 ng/mL
  plasma concentration, Without hydrolysis: <LOQ
[2]; 0.5 mg kg-1 MDPV sc, 30 min
  plasma concentration, Hydrolysis: 3.1 ng/mL
  plasma concentration, Without hydrolysis: <LOQ
[2]; 0.5 mg kg-1 MDPV sc, 60 min
  plasma concentration, Hydrolysis: 3.8 ng/mL
  plasma concentration, Without hydrolysis: <LOQ
[2]; 0.5 mg kg-1 MDPV sc, 120 min
  plasma concentration, Hydrolysis: 9.4 ng/mL
  plasma concentration, Without hydrolysis: <LOQ
[2]; 0.5 mg kg-1 MDPV sc, 240 min
  plasma concentration, Hydrolysis: 9.8 ng/mL
  plasma concentration, Without hydrolysis: <LOQ
[2]; 0.5 mg kg-1 MDPV sc, 480 min
  plasma concentration, Hydrolysis: 3.6 ng/mL
  plasma concentration, Without hydrolysis: <LOQ

## CCCC(C(=O)c1ccc(O)c(OC)c1)N1CCCC1 (centres unmarked) [4-OH-3-MeO-PV, 4-hydroxy-3-methoxypyrovalerone]
[1]; [3]
  Stability (% difference) 3 freeze-thaw cycles: −0.5 % difference
  Stability (% difference) 72h at 4°C: −1.5 % difference
[1]; [4]
  Stability (% difference) 3 freeze-thaw cycles: 3.5 % difference
  Stability (% difference) 72h at 4°C: 3.9 % difference
[1]; [5]
  Stability (% difference) 3 freeze-thaw cycles: −0.5 % difference
  Stability (% difference) 72h at 4°C: 6 % difference
[2]
  change of plasma concentration without the deconjugation step (hydrolysis): greatly decreased
  form present in rat plasma: primarily present as the conjugated forms
  plasma concentration range after intraperitoneal dosing: 9.3 to 84.7 ng/mL
  plasma concentration range after the subcutaneous dose: 3.2 to 54.4 ng/mL
[2]; [6]
  plasma concentration, Without hydrolysis: <LOQ
[2]; 0.5 mg kg-1 MDPV ip, 10 min
  plasma concentration, Hydrolysis: 9.3 ng/mL
  plasma concentration, Without hydrolysis: 0.9 ng/mL
[2]; 0.5 mg kg-1 MDPV ip, 20 min
  plasma concentration, Hydrolysis: 11.8 ng/mL
  plasma concentration, Without hydrolysis: 0.7 ng/mL
[2]; 0.5 mg kg-1 MDPV ip, 30 min
  plasma concentration, Hydrolysis: 12.3 ng/mL
  plasma concentration, Without hydrolysis: 0.7 ng/mL
[2]; 0.5 mg kg-1 MDPV ip, 60 min
  plasma concentration, Hydrolysis: 14.1 ng/mL
  plasma concentration, Without hydrolysis: <LOQ
[2]; 0.5 mg kg-1 MDPV ip, 120 min
  plasma concentration, Hydrolysis: 68.9 ng/mL
  plasma concentration, Without hydrolysis: 0.5 ng/mL
[2]; 0.5 mg kg-1 MDPV ip, 240 min
  plasma concentration, Hydrolysis: 84.7 ng/mL
  plasma concentration, Without hydrolysis: 0.5 ng/mL
[2]; 0.5 mg kg-1 MDPV ip, 480 min
  plasma concentration, Hydrolysis: 23.6 ng/mL
  plasma concentration, Without hydrolysis: <LOQ
[2]; [7]
  plasma concentration, Without hydrolysis: <LOQ
[2]; 0.5 mg kg-1 MDPV sc, 10 min
  plasma concentration, Hydrolysis: 3.2 ng/mL
  plasma concentration, Without hydrolysis: 1.1 ng/mL
[2]; 0.5 mg kg-1 MDPV sc, 20 min
  plasma concentration, Hydrolysis: 6.1 ng/mL
  plasma concentration, Without hydrolysis: 1.2 ng/mL
[2]; 0.5 mg kg-1 MDPV sc, 30 min
  plasma concentration, Hydrolysis: 6.7 ng/mL
  plasma concentration, Without hydrolysis: 1.1 ng/mL
[2]; 0.5 mg kg-1 MDPV sc, 60 min
  plasma concentration, Hydrolysis: 11 ng/mL
  plasma concentration, Without hydrolysis: 0.9 ng/mL
[2]; 0.5 mg kg-1 MDPV sc, 120 min
  plasma concentration, Hydrolysis: 44.7 ng/mL
  plasma concentration, Without hydrolysis: 0.7 ng/mL
[2]; 0.5 mg kg-1 MDPV sc, 240 min
  plasma concentration, Hydrolysis: 54.4 ng/mL
  plasma concentration, Without hydrolysis: 0.4 ng/mL
[2]; 0.5 mg kg-1 MDPV sc, 480 min
  plasma concentration, Hydrolysis: 11 ng/mL
  plasma concentration, Without hydrolysis: <LOQ
